Measured values taken from US20220315554A1, “COMPOUNDS COMPRISING A […] LIGAND AND USE THEREOF” (priority 2019, published 2022).
Numbered stars: 1 amine (or outer) side, 2 acyl side, 3 side chain; on linkers, the order of the positions; unused ones are H or OH. Bridge positions count the residues as written; N and C are the ends. Square brackets hold non-standard residues; d marks the D form. Peptide text beside a SMILES is read from it. * marks the point of attachment. X35 = O=C(O)CN(CCN(CCN(CC(=O)O)CC(=O)O)CC(=O)NCCCOCCOCCOCCCN*)CC(=O)O; X42 = NCCNCC(CNCCN)C(=O)N[C@@H](CCC(=O)NCCCOCCOCCOCCCN*)C(=O)O; X12 = NCCNCC(CNCCN)C(=O)NCCCOCCOCCOCCCN*; X40 = NCCNCC(CNCCN)C(=O)NCCS(=O)(=O)CCN*; γGlu = O=C(O)[C@H](CCC(=O)[*:2])N[*:1]; mXylylene = c1cc(C[*:1])cc(C[*:2])c1; X51 = O=C(CN1CCC(N[*:1])CC1)[*:2]; 4Pal = N[C@@H](Cc1ccncc1)C(=O)O; Suc = O=C(CCC(=O)[*:2])[*:1]; X18 = NCCNCC(CNCCN)C(=O)*; Nle = CCCC[C@H](N)C(=O)O; AEEA = NCCOCCOCC(=O)O

Legend:
Human recombinant FAP = target: T1, Human recombinant FAP (Homo sapiens, UniProt Q12884); assay: FRET-based FAP protease activity assay; format: biochemical; parameters: purchased R&D systems 3715-SE; settings: pIC50 Category (Activity), FRET substrate, 37° C.
T1 sequence (Q12884 1-760): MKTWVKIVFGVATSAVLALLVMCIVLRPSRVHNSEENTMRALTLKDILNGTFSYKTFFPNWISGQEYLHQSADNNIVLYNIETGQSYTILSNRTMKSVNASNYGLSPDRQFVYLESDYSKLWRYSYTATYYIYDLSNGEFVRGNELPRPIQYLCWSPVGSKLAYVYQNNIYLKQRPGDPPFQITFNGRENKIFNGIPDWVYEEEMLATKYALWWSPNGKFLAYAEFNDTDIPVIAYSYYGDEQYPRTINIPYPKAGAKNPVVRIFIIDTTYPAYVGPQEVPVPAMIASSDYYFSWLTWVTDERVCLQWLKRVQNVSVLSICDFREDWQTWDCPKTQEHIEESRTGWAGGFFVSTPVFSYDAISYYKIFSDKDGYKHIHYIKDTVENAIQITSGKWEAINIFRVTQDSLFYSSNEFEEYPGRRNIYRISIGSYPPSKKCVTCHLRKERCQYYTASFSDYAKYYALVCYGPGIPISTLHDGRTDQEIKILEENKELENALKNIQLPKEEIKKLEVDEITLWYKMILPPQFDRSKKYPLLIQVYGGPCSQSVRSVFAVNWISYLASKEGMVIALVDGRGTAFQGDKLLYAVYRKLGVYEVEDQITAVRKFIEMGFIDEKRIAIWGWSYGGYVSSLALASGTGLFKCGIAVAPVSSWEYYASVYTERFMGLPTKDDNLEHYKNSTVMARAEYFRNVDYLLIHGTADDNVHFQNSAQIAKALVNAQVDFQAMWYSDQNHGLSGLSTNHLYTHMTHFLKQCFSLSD

[1] = target: T2, FAP-expressing human WI-38 fibroblasts (Homo sapiens, UniProt Q12884); assay: Competitive FACS binding assay; settings: pIC50 Category (FACS), competition with 3 nM Cy5-labeled compound, 4° C., 1 hour
T2 construct: FAP-expressing human WI-38 fibroblasts (ECACC) were cultured in EMEM; host or cells: WI-38 human fibroblasts
T2 sequence (Q12884 1-760): T1 sequence (Q12884 1-760)
Procedure: Cells were analyzed in an Attune NxT flow cytometer. […]

Compound	IC50 (Human recombinant FAP) [µM]	IC50 [1] [µM]
CCCCCC(=O)N[C@H]1CSCc2cc(CSCCNC(=O)CN3CCN(CC(=O)O)CCN(CC(=O)O)CCN(CC(=O)O)CC3)cc(c2)CSC[C@H](C(=O)O)NC(=O)[C@H](Cc2ccccc2)NC(=O)[C@H](CCC(N)=O)NC(=O)[C@H]([C@@H](C)O)NC(=O)[C@@H]2CCCN2C(=O)[C@@H]2CCCN2C1=O [3BP-4111, Hex-[Cys-(tMeBn(DOTA-AET))-Pro-Pro-Thr-Gln-Phe-D-Cys]-OH]	0.01 to 0.0794	0.01 to 0.0794
CCCCCC(=O)N[C@H]1CSCc2cc(cc(CN3CCN(C(=O)COCCOCCNC(=O)C(CNCCN)CNCCN)CC3)c2)CSC[C@@H](C(=O)O)NC(=O)[C@H](Cc2ccccc2)NC(=O)[C@H](CCC(N)=O)NC(=O)[C@H]([C@@H](C)O)NC(=O)[C@@H]2CCCN2C(=O)[C@@H]2CCCN2C1=O [3BP-4169, Hex-[Cys-(tMeBn(N4Ac-O2Oc-PP))-Pro-Pro-Thr-Gln-Phe-Cys]-OH]	< 0.01	0.01 to 0.0794
CCCCCC(=O)N[C@H]1CSCc2cc(CSCCNC(=O)CCC(=O)NCCCOCCOCCOCCCNC(=O)CCC(=O)NCCCOCCOCCOCCCNC(=O)CCC(=O)NCCCOCCOCCOCCCNC(=O)CCCNCCCOCCOCCOCCCNC(=O)CCCC[C@H]3SC[C@H]4NC(=O)N[C@H]43)cc(c2)CSC[C@@H](C(=O)O)NC(=O)[C@H](Cc2ccccc2)NC(=O)[C@H](CCC(N)=O)NC(=O)[C@H]([C@@H](C)O)NC(=O)[C@@H]2CCCN2C(=O)[C@@H]2CCCN2C1=O [3BP-4170, Hex-[Cys-(tMeBn(Bio-Ttds-Ttds-Ttds-Ttds-AET))-Pro-Pro-Thr-Gln-Phe-Cys]-OH]	0.01 to 0.0794	0.01 to 0.0794
CCCCCC(=O)N[C@H]1CSCc2cc(cc(CN3CCNCC3)c2)CSC[C@@H](C(=O)O)NC(=O)[C@H](Cc2ccccc2)NC(=O)[C@H](CCC(N)=O)NC(=O)[C@H]([C@@H](C)O)NC(=O)[C@@H]2CCCN2C(=O)[C@@H]2CCCN2C1=O [3BP-4181, Hex-[Cys-(tMeBn(H-PP))-Pro-Pro-Thr-Gln-Phe-Cys]-OH]	0.01 to 0.0794	0.01 to 0.0794
CCCCCC(=O)N[C@H]1CSCc2cccc(c2)CSC[C@@H](C(=O)O)NC(=O)[C@H](Cc2ccccc2)NC(=O)[C@H](CCC(N)=O)NC(=O)[C@H]([C@@H](C)O)NC(=O)[C@@H]2CCCN2C(=O)[C@@H]2CCCN2C1=O [3BP-4186, Hex-[Cys-(3MeBn)-Pro-Pro-Thr-Gln-Phe-Cys]-OH]	0.01 to 0.0794	0.01 to 0.0794
CCCCCC(=O)N[C@H]1CSCc2cc(CSCCNC(=O)CN(CCN(CC(=O)O)CC(=O)O)CCN(CC(=O)O)CC(=O)O)cc(c2)CSC[C@@H](C(=O)O)NC(=O)[C@H](Cc2ccccc2)NC(=O)[C@H](CCC(N)=O)NC(=O)[C@H]([C@@H](C)O)NC(=O)[C@@H]2CCCN2C(=O)[C@@H]2CCCN2C1=O [3BP-4214, Hex-[Cys-(tMeBn(DTPA-AET))-Pro-Pro-Thr-Gln-Phe-Cys]-OH]	0.01 to 0.0794	0.01 to 0.0794
CCCC[C@H](NC(=O)CN1CCC(NC(=O)C(CNCCN)CNCCN)CC1)C(=O)N[C@H]1CSCc2cccc(c2)CSC[C@@H](C(=O)O)NC(=O)[C@H](Cc2ccccc2)NC(=O)[C@H](CCC(=O)O)NC(=O)[C@H]([C@@H](C)O)NC(=O)[C@@H]2CCCN2C(=O)[C@@H]2CCCN2C1=O [3BP-4220, N4Ac-APAc-Nle-[Cys-(3MeBn)-Pro-Pro-Thr-Glu-Phe-Cys]-OH] (X18-[X51][Nle]CPPTEFC-OH; linker 3-9 via mXylylene)	> 1	> 1
CCCCCC(=O)N[C@H]1CSCc2cc(CSCCNC(=O)COCCOCCNC(=O)CN(CCN(CC(=O)O)CC(=O)O)CCN(CC(=O)O)CC(=O)O)cc(c2)CSC[C@@H](C(=O)O)NC(=O)[C@H](Cc2ccccc2)NC(=O)[C@H](CCC(N)=O)NC(=O)[C@H]([C@@H](C)O)NC(=O)[C@@H]2CCCN2C(=O)[C@@H]2CCCN2C1=O [3BP-4224, Hex-[Cys-(tMeBn(DTPA-O2Oc-AET))-Pro-Pro-Thr-Gln-Phe-Cys]-OH]	0.01 to 0.0794	0.01 to 0.0794

Further lines, results first:

IC50 (Human recombinant FAP) [µM]	IC50 [1] [µM]	Compound
0.1 to 0.794	0.1 to 0.794	CCCC[C@H](NC(=O)CCC(=O)NCCCOCCOCCOCCCNC(=O)C(CNCCN)CNCCN)C(=O)N[C@H]1CSCc2cccc(c2)CSC[C@@H](C(=O)O)NC(=O)[C@H](Cc2ccncc2)NC(=O)[C@H](CCC(=O)O)NC(=O)[C@H]([C@@H](C)O)NC(=O)[C@@H]2CCCN2C(=O)[C@@H]2CCCN2C1=O [3BP-4223, N4Ac-Ttds-Nle-[Cys-(3MeBn)-Pro-Pro-Thr-Glu-Ppa-Cys]-OH] ({X12-Suc}-[Nle]CPPTE[4Pal]C-OH; linker 2-8 via mXylylene)
0.1 to 0.794	> 1	CCCC[C@H](NC(=O)COCCOCCNC(=O)C(CNCCN)CNCCN)C(=O)N[C@H]1CSCc2cccc(c2)CSC[C@@H](C(=O)O)NC(=O)[C@H](Cc2ccccc2)NC(=O)[C@H](CCC(=O)O)NC(=O)[C@H]([C@@H](C)O)NC(=O)[C@@H]2CCCN2C(=O)[C@@H]2CCCN2C1=O [3BP-4228, N4Ac-O2O-Nle-[Cys-(3MeBn)-Pro-Pro-Thr-Glu-Phe-Cys]-OH] ({X18-AEEA}-[Nle]CPPTEFC-OH; linker 2-8 via mXylylene)
0.01 to 0.0794	0.1 to 0.794	CCCC[C@H](NC(=O)CCC(=O)NCCCOCCOCCOCCCNC(=O)CN(CCN(CC(=O)O)CC(=O)O)CCN(CC(=O)O)CC(=O)O)C(=O)N[C@H]1CSCc2cccc(c2)CSC[C@@H](C(=O)O)NC(=O)[C@H](Cc2ccccc2)NC(=O)[C@H](CCC(=O)O)NC(=O)[C@H]([C@@H](C)O)NC(=O)[C@@H]2CCCN2C(=O)[C@@H]2CCCN2C1=O [3BP-4229, DTPA-Ttds-Nle-[Cys-(3MeBn)-Pro-Pro-Thr-Glu-Phe-Cys]-OH] ({X35-Suc}-[Nle]CPPTEFC-OH; linker 2-8 via mXylylene)
> 1	> 1	CCCC[C@H](NC(=O)CC[C@H](NC(=O)C(CNCCN)CNCCN)C(=O)O)C(=O)N[C@H]1CSCc2cccc(c2)CSC[C@@H](C(=O)O)NC(=O)[C@H](Cc2ccccc2)NC(=O)[C@H](CCC(=O)O)NC(=O)[C@H]([C@@H](C)O)NC(=O)[C@@H]2CCCN2C(=O)[C@@H]2CCCN2C1=O [3BP-4230, N4Ac-gGlu-Nle-[Cys-(3MeBn)-Pro-Pro-Thr-Glu-Phe-Cys]-OH] ({X18-γGlu}-[Nle]CPPTEFC-OH; linker 2-8 via mXylylene)
> 1	0.1 to 0.794	C[C@@H](O)[C@@H]1NC(=O)[C@@H]2CCCN2C(=O)[C@@H]2CCCN2C(=O)[C@@H](NC(=O)[C@H](CCC(=O)O)NC(=O)CCC(=O)NCCCOCCOCCOCCCNC(=O)C(CNCCN)CNCCN)CSCc2cccc(c2)CSC[C@@H](C(=O)O)NC(=O)[C@H](Cc2ccccc2)NC(=O)[C@H](CCC(=O)O)NC1=O [3BP-4233, N4Ac-Ttds-Glu-[Cys-(3MeBn)-Pro-Pro-Thr-Glu-Phe-Cys]-OH] ({X12-Suc}-ECPPTEFC-OH; linker 2-8 via mXylylene)
0.01 to 0.0794	0.01 to 0.0794	CCCC[C@H](NC(=O)CCC(=O)NCCS(=O)(=O)CCNC(=O)C(CNCCN)CNCCN)C(=O)N[C@H]1CSCc2cccc(c2)CSC[C@@H](C(=O)O)NC(=O)[C@H](Cc2ccccc2)NC(=O)[C@H](CCC(=O)O)NC(=O)[C@H]([C@@H](C)O)NC(=O)[C@@H]2CCCN2C(=O)[C@@H]2CCCN2C1=O [3BP-4243, N4Ac-Efa-Nle-[Cys-(3MeBn)-Pro-Pro-Thr-Glu-Phe-Cys]-OH] ({X40-Suc}-[Nle]CPPTEFC-OH; linker 2-8 via mXylylene)
> 1	> 1	CCCC[C@H](NC(=O)CC[C@H](NC(=O)C(CNCCN)CNCCN)C(=O)O)C(=O)N[C@H]1CSCc2cccc(c2)CSC[C@@H](C(=O)O)NC(=O)[C@H](Cc2ccccc2)NC(=O)[C@H](CCC(N)=O)NC(=O)[C@H]([C@@H](C)O)NC(=O)[C@@H]2CCCN2C(=O)[C@@H]2CCCN2C1=O [3BP-4244, N4Ac-gGlu-Nle-[Cys-(3MeBn)-Pro-Pro-Thr-Gln-Phe-Cys]-OH]
0.01 to 0.0794	0.01 to 0.0794	CCCC[C@H](NC(=O)CCC(=O)NCCCOCCOCCOCCCNC(=O)CC[C@H](NC(=O)C(CNCCN)CNCCN)C(=O)O)C(=O)N[C@H]1CSCc2cccc(c2)CSC[C@@H](C(=O)O)NC(=O)[C@H](Cc2ccccc2)NC(=O)[C@H](CCC(=O)O)NC(=O)[C@H]([C@@H](C)O)NC(=O)[C@@H]2CCCN2C(=O)[C@@H]2CCCN2C1=O [3BP-4245, N4Ac-gGlu-Ttds-Nle-[Cys-(3MeBn)-Pro-Pro-Thr-Gln-Phe-Cys]-OH] ({X42-Suc}-[Nle]CPPTEFC-OH; linker 2-8 via mXylylene)
0.01 to 0.0794	0.01 to 0.0794	CCCC[C@H](NC(=O)CCC(=O)NCCCOCCOCCOCCCNC(=O)[C@H](CCC(=O)NC[C@H](O)[C@@H](O)[C@H](O)[C@H](O)CO)NC(=O)[C@H](CCC(=O)NC[C@H](O)[C@@H](O)[C@H](O)[C@H](O)CO)NC(=O)C(CNCCN)CNCCN)C(=O)N[C@H]1CSCc2cccc(c2)CSC[C@@H](C(=O)O)NC(=O)[C@H](Cc2ccccc2)NC(=O)[C@H](CCC(=O)O)NC(=O)[C@H]([C@@H](C)O)NC(=O)[C@@H]2CCCN2C(=O)[C@@H]2CCCN2C1=O [3BP-4266, N4Ac-Glu(AGLU)-Glu(AGLU)-Ttds-Nle-[Cys-(3MeBn)-Pro-Pro-Thr-Glu-Phe-Cys]-OH]
